Assay results: patent US8946290B2, “Combination of selected opioids with muscarine antagonists for treating urinary incontinence” (Gruenenthal GmbH, priority 2001, dated 2015)

Tested on: bladder function
Experiment: Cystometry on anaesthetized naive rats
Type: in vivo
Conditions: anaesthetized naive female rats, rate of contractions (micturition events/min)
Procedure: The cystometric investigation on naive female rats was carried out by the method of Kimura et al. (Kimura et al., 1996, Int. J. Urol. 3:218-227). The abdomen of anaesthetized, ventilated rats is opened up and the ureter is ligated. The urine is drained from the kidneys. A catheter is inserted into the bladder and fixed. […] After stable starting values are reached, the test substance is administered intravenously. An influence on bladder function manifests itself via suppression of the spontaneous contractions.
In the present example, compound A ((+)-(2R,3R)-1-dimethylamino-3-(3-methoxy-phenyl)-2-methyl-pentan-3-ol; hydrochloride) in the dosage of 0.1 mg/kg intravenous was combined with compound B (oxybutynin) in the dosage of 0.03 mg/kg intravenous and the action of this combination was compared with that of the individual substances.

Compound | Inhibition of the rate of contractions compared with the pretest (0.1 mg/kg i.v.) [% MPE] | Inhibition of the rate of contractions compared with the pretest (0.03 mg/kg i.v.) [% MPE]
CC[C@](O)(c1cccc(OC)c1)[C@H](C)CN(C)C.Cl [Compound A, (+)-(2R,3R)-1-dimethylamino-3-(3-methoxy-phenyl)-2-methyl-pentan-3-ol; hydrochloride] | 21.7 | 
CCN(CC)CC#CCOC(=O)C(O)(c1ccccc1)C1CCCCC1 (centres unmarked) [Compound B, oxybutynin] |  | 10.7
